According to ChEMBL document CHEMBL2074224, “Characterization of multidrug resistance-associated protein 2 in the hepatocellular disposition of 4-hydroxynonenal” (Arch Biochem Biophys, 2003):

Molecular target: ATP-binding cassette sub-family C member 2 (Rattus norvegicus, UniProt Q63120)
Experiment: TP_TRANSPORTER: efflux in isolated rat hepatocytes (Wistar/TR-)
Assay type: functional, cell-based, Hepatocyte

Chain of ATP-binding cassette sub-family C member 2 (Q63120 whole entry): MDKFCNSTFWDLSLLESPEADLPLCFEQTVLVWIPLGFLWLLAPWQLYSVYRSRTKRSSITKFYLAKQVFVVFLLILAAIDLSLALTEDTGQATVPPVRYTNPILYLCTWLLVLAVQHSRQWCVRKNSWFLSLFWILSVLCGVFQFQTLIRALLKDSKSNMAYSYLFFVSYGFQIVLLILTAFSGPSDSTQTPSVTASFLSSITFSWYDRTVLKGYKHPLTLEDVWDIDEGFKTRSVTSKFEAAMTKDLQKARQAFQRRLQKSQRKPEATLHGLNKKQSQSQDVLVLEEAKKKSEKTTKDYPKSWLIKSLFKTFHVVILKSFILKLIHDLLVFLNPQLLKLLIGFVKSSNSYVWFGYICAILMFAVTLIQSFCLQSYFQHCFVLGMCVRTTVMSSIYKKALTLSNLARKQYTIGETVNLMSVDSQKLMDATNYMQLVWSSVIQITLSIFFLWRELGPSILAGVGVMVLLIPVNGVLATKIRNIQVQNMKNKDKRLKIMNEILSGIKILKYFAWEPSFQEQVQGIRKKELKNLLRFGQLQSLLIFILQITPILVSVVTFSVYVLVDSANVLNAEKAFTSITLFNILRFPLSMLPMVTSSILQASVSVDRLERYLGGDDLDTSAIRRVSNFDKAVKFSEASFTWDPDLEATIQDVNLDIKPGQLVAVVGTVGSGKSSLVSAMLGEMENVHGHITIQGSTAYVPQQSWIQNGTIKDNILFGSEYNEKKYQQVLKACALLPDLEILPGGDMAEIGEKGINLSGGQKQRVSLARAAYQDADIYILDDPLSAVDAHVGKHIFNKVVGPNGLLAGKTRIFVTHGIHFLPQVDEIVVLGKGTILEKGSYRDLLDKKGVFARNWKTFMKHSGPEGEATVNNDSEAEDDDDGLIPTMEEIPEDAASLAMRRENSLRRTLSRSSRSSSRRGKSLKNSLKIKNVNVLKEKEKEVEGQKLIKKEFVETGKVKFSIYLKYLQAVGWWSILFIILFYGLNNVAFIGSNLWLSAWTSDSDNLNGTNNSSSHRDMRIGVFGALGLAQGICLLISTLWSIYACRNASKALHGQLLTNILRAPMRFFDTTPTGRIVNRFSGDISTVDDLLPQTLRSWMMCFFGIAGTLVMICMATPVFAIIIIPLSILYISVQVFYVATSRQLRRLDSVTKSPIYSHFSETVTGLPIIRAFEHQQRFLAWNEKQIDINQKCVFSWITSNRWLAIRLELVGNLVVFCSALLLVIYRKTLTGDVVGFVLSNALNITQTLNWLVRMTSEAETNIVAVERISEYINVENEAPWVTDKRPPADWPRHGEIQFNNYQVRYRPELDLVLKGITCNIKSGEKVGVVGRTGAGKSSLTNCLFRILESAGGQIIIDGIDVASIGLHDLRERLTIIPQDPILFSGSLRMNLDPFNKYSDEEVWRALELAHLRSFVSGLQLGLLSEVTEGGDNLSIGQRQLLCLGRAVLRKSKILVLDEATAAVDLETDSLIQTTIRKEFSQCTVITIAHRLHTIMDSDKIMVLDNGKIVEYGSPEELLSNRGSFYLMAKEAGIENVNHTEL

Question: For CCCCCC1OC(O)CC1SC[C@H](NC(=O)CC[C@H](N)C(=O)O)C(=O)NCC(=O)O (stereo partly specified), which Activity is on record?
Answer: The Activity was “substrate []”.
